Measurements from patent publication US11584740B2 (priority 2017, dated 2023).

What was measured:
[1] = tested on: Fusarium culmorum; format: cell-based; details: 20 ppm; compared to untreated control; inhibition of growth determined photometrically 3-4 days after application, 24° C.
[2] = tested on: Monographella nivalis (Microdochium nivale); test: Monographella nivalis (Microdochium nivale) / liquid culture (foot rot cereals); format: cell-based; details: 20 ppm; compared to untreated control; inhibition of growth determined photometrically 4-5 days after application, 24° C.
Method: Monographella nivalis (Microdochium nivale)/Liquid Culture (Foot Rot Cereals)
(§1) Conidia of the fungus from cryogenic storage are directly mixed into nutrient broth (PDB potato dextrose broth). After placing a (DMSO) solution of test compound into a microtiter plate (96-well format), the nutrient broth containing the fungal spores is added. The test plates are incubated at 24° C. and the inhibition of growth is determined photometrically 4-5 days after application.

[3] = tested on: Magnaporthe grisea (Pyricularia oryzae); format: cell-based; details: 20 ppm; compared to untreated control; inhibition of growth determined photometrically 3-4 days after application, 24° C.
[4] = tested on: Gaeumannomyces graminis; test: Gaeumannomyces graminis / liquid culture (take-all of cereals); format: cell-based; details: 20 ppm; compared to untreated control; inhibition of growth determined photometrically 4-5 days after application, 24° C.
Method: Gaeumannomyces graminis/Liquid Culture (Take-all of Cereals)
as §1, with “Mycelial fragments of” for “Conidia of”, “storage were” for “storage are”, “spores iss” for “spores is”

[5] = tested on: Glomerella lagenarium (Colletotrichum lagenarium); test: Glomerella lagenarium (Colletotrichum lagenarium) / liquid culture (anthracnose); format: cell-based; details: 20 ppm; compared to untreated control; inhibition of growth measured photometrically 3-4 days after application, 24° C.
Method: Glomerella Lagenarium (Colletotrichum lagenarium)/Liquid Culture (Anthracnose)
as §1, with “measured” for “determined”, “3-4” for “4-5”

[6] = tested on: Botryotinia fuckeliana (Botrytis cinerea); test: Botryotinia fuckeliana (Botrytis cinerea) / liquid culture (gray mould); format: cell-based; details: 20 ppm; compared to untreated control; inhibition of growth determined photometrically 3-4 days after application, 24° C.
Method: Botryotinia fuckeliana (Botrytis cinerea)/Liquid Culture (Gray Mould)
as §1, with “(Vogels” for “(PDB potato dextrose”, “3-4” for “4-5”

## CC(C)CC(C)(Cc1ccc(Cl)s1)C(=O)Nc1cnc2c(F)cccc2c1 (stereo not shown) [Compound E1, 2-[(5-chloro-2-thienyl)methyl]-N-(8-fluoro-3-quinolyl)-2,4-dimethyl-pentanamide]
[1]
  control of Fusarium culmorum: at least 80%
[2]
  control of Monographella nivalis: at least 80%
[3]
  control of Magnaporthe grisea: at least 80%
[4]
  control of Gaeumannomyces graminis: at least 80%
[5]
  control of Glomerella lagenarium: at least 80%
other
  melting point: 142 to 145 °C
[6]
  control of Botryotinia fuckeliana: at least 80%
